pEC50, pIC50: −log10 of the molar value. One block for each compound: values may come before it. Active and inactive are the calls of the source. The calls are words filed in the database; no cut-off is given here.
Tests used:
[1] = test system: MCF7; assay: Cytotoxicity against human MCF7 cells assessed as inhibition of cell growth incubated for 72 hrs by MTT assay; assay type: functional, cell-based; settings: MCF7, 72 h
[2] = test system: MCF7; assay: Induction of ROS generation in human MCF7 cells assessed as increase in red fluorescence incubated for 4 hrs by Hoechst 33342 staining based confocal microscopic analysis; assay type: functional, cell-based
[3] = test system: MCF7; assay: Induction of ROS generation in human MCF7 cells assessed as […] preincubated for 4 hrs followed by ultrasonic sound treatment for 30 sec by DCFH-DA dye based inverted microscopy; assay type: functional, cell-based; settings: time 14430.0 sec
[4] = test system: MCF7; assay: Induction of ROS generation in human MCF7 cells assessed as increase in ROS level incubated for 4 hrs by DCFH-DA dye based flow cytometry analysis (Rvb=2.9%); assay type: functional
[5] = test system: MCF7; assay: Induction of ROS generation in human MCF7 cells assessed as increase in ROS level preincubated for 4 hrs followed by ultrasonic sound treatment for 30 sec by DCFH-DA dye based flow cytometry analysis (Rvb= 3.5%); assay type: functional; settings: time 14430 sec; 4.008 h
[6] = Inhibition of LPS-stimulated NO production in mouse RAW264.7 cells incubated for 24 hrs by Griess reagent based microplate reader analysis; assay type: functional, cell-based; settings: RAW264.7, 24 h
[7] = Inhibition of LPS-stimulated NO production in mouse RAW264.7 cells at 10 uM incubated for 24 hrs by Griess reagent based microplate reader analysis relative to control; assay type: functional
[8] = test system: MCF7; assay: Cytotoxicity against human MCF7 cells assessed as inhibition of cell growth more than 1 uM measured for 72 hrs by MTT assay; assay type: functional, cell-based
[9] = test system: MCF7; assay: Sono-cytotoxicity against human MCF7 cells assessed as inhibition of cell growth preincubated for 4 hrs followed by ultrasonic sound treatment for 30 sec by MTT assay; assay type: functional, cell-based
[10] = test system: MCF7; assay: Sono-cytotoxicity against human MCF7 cells assessed as inhibition of cell growth preincubated for 4 hrs followed by ultrasonic sound treatment for 2 mins by MTT assay; assay type: functional, cell-based
[11] = test system: MCF7; assay: Sono-cytotoxicity against human MCF7 cells assessed as inhibition of cell growth preincubated for 4 hrs followed by ultrasonic sound treatment for 5 mins by MTT assay; assay type: functional, cell-based
[12] = test system: MCF7; assay: Induction of apoptosis in human MCF7 cells assessed as viable cells preincubated for 4 hrs followed by ultrasonic sound treatment for 30 sec and measured after 24 hrs by Annexin V-FITC/propidium iodide double staining based flow cytometry analysis (reference value: […]); assay type: functional; settings: 28 h
[13] = test system: MCF7; assay: Induction of apoptosis in human MCF7 cells assessed as early apoptotic cells preincubated for 4 hrs followed by ultrasonic sound treatment for 30 sec and measured after 24 hrs by Annexin V-FITC/propidium iodide double staining based flow cytometry analysis (reference value: 1.83 %); assay type: functional; settings: 28 h
[14] = test system: MCF7; assay: Induction of apoptosis in human MCF7 cells assessed as late apoptotic cells preincubated for 4 hrs followed by ultrasonic sound treatment for 30 sec and measured after 24 hrs by Annexin V-FITC/propidium iodide double staining based flow cytometry analysis (reference value: 0 %); assay type: functional; settings: 28 h
[15] = test system: MCF7; assay: Induction of apoptosis in human MCF7 cells assessed as necrotic cells preincubated for 4 hrs followed by ultrasonic sound treatment for 30 sec and measured after 24 hrs by Annexin V-FITC/propidium iodide double staining based flow cytometry analysis (reference value: 1.05%); assay type: functional; settings: 28 h
[16] = test system: MCF7; assay: Induction of apoptosis in human MCF7 cells at 10 uM incubated for 24 hrs by Annexin V-FITC/propidium iodide double staining based flow cytometry analysis; assay type: functional, cell-based
[17] = target: Nuclear factor NF-kappa-B complex (Homo sapiens) (UniProt Q00653+P19838+Q04206); assay: Inhibition of H2O2-induced NFkappaB activation in human MCF7 cells at 1 uM measured for 12 hrs by ELISA analysis; assay type: cell-based
Sequence of Nuclear factor NF-kappa-B complex (Homo sapiens) (P19838 whole entry, looked up): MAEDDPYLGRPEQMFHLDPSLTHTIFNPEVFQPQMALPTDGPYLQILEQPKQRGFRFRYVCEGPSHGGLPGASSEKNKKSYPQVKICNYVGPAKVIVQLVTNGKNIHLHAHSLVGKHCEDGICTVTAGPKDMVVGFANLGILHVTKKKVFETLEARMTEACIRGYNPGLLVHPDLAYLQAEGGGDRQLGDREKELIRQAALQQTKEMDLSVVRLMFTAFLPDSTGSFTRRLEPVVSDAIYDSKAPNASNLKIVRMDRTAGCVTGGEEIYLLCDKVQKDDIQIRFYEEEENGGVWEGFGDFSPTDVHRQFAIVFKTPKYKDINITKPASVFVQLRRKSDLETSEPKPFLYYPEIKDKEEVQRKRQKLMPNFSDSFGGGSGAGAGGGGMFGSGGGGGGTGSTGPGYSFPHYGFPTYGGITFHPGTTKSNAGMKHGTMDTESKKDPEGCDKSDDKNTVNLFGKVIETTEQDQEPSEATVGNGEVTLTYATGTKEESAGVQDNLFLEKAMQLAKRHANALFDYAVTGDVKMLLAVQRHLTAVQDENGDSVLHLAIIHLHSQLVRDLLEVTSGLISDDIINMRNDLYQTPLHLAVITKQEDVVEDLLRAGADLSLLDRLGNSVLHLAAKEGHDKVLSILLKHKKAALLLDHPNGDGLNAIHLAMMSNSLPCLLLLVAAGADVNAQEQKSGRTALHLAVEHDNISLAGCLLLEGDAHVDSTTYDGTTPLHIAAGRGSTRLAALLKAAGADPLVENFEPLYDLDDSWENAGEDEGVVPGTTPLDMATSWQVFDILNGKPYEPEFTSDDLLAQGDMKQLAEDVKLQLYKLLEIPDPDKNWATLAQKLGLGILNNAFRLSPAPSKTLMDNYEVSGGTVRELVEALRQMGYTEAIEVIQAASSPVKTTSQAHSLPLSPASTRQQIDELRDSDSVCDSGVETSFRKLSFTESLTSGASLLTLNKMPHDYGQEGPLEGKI
Sequence of Nuclear factor NF-kappa-B complex (Homo sapiens) (Q00653 whole entry, looked up): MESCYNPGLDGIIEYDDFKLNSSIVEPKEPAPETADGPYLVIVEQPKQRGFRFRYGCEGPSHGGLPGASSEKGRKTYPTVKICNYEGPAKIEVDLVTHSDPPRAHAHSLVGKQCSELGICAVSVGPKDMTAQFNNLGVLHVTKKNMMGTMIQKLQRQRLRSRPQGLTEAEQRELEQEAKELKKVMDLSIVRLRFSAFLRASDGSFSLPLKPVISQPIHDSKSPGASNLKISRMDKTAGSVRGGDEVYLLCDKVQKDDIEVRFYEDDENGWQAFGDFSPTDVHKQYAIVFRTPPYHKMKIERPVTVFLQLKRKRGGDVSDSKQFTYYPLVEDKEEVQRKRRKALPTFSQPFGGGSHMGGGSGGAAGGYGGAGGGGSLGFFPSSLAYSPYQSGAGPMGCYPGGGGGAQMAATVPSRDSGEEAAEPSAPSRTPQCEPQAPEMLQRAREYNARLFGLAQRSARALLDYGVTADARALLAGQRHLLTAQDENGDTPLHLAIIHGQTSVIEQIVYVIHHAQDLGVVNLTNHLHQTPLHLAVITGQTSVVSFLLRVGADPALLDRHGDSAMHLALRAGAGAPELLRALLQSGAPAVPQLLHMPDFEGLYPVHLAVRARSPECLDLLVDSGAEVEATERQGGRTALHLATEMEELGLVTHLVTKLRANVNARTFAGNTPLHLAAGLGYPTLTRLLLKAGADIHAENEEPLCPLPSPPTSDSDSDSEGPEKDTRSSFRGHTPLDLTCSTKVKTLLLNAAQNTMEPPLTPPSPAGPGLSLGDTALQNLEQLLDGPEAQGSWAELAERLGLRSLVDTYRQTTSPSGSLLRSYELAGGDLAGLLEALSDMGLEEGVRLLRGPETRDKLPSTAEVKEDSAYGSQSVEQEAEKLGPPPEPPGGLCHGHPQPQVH
Sequence of Nuclear factor NF-kappa-B complex (Homo sapiens) (Q04206 whole entry, looked up): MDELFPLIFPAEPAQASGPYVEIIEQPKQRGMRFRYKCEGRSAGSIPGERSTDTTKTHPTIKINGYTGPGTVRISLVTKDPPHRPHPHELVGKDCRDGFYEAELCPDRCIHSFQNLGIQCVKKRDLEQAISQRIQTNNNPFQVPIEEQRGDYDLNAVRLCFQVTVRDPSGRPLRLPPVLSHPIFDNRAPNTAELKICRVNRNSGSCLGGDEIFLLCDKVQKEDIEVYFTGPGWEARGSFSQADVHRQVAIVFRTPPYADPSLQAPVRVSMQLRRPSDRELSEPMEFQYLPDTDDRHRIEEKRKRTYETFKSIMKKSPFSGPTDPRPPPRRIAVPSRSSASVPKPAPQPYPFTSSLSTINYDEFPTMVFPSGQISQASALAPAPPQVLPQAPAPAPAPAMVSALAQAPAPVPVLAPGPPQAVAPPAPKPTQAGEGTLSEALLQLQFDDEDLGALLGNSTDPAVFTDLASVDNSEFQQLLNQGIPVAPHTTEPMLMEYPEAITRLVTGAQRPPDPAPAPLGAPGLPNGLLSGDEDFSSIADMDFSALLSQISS

[18] = Induction of hyperthermia in solvent assessed as increase in temperature at 10 uM treated with ultrasonic sound for 2 mins and measured after 5 mins; settings: time 7.0 min
[19] = test system: MCF7; assay: Cytotoxicity against human MCF7 cells assessed as inhibition of cell growth preincubated for 72 hrs followed by ultrasonic sound treatment for 30 sec by MTT assay; assay type: functional, cell-based; settings: for Activity: time 259230.0 sec
[20] = Drug uptake in BALB/c mouse tumor xenografted with human MCF7 cells assessed as accumulation of red fluorescence at 1.5 mg/kg, iv measured at 6 hrs by fluorescence imaging analysis; assay type: ADME, organism-based, Neoplasm; settings: in vivo
[21] = test system: MCF7; assay: Effect of p38 protein level in human MCF7 cells at 10 uM measured for 24 hrs by ELISA analysis; assay type: functional, cell-based
[22] = test system: MCF7; assay: Effect of TNF-alpha protein level in human MCF7 cells at 10 uM measured for 24 hrs by ELISA analysis; assay type: functional, cell-based
[23] = test system: MCF7; assay: Effect of IL-6 protein level in human MCF7 cells at 10 uM measured for 24 hrs by ELISA analysis; assay type: functional, cell-based
[24] = Drug uptake in BALB/c mouse limb xenografted with human MCF7 cells assessed as accumulation of red fluorescence at 1.5 mg/kg, iv measured at 6 hrs by fluorescence imaging analysis; assay type: ADME, organism-based; settings: in vivo
[25] = Drug uptake in BALB/c mouse skin xenografted with human MCF7 cells assessed as accumulation of red fluorescence at 1.5 mg/kg, iv measured at 6 hrs by fluorescence imaging analysis; assay type: ADME, organism-based, Skin of body; settings: in vivo
[26] = Toxicity in BALB/c mouse xenografted with human MCF7 cells assessed as drug tolerance at 1.5 mg/kg, iv administered for 10 days followed by ultrasonic sound treatment for 2 to 6 hrs and measured immediately; assay type: organism-based; settings: in vivo, time 242-246 hrs
[27] = Toxicity in BALB/c mouse xenografted with human MCF7 cells assessed as decrease in body weight at 1.5 mg/kg, iv administered for 10 days followed by ultrasonic sound treatment for 2 to 6 hrs and measured immediately; assay type: organism-based; settings: in vivo, time 242-246 hrs
[28] = Downregulation of IL-6 expression level in serum of BALB/c mouse at 1.5 mg/kg, iv measured at 12 to 24 hrs; assay type: functional; settings: time 12-24 hrs
[29] = test system: MCF7; assay: Antitumor activity against human MCF7 cells xenografted in BALB/c mouse assessed as tumor growth inhibition at 1.5 mg/kg, iv administered for 10 days followed by ultrasonic sound treatment for 2 to 6 hrs and measured immediately; assay type: functional; settings: time 242-246 hrs, read-out: TGI
[30] = test system: Mus musculus; assay: Induction of hyperthermia in BALB/c mouse xenografted with human MCF7 cells assessed as burning of skin at 1.2 mg/kg, iv administered for 10 days followed by ultrasonic sound treatment for 2 to 6 hrs and measured immediately; assay type: functional, organism-based; settings: time 242-246 hrs
[31] = Toxicity in BALB/c mouse xenografted with human MCF7 cells assessed as heart damage at 1.2 mg/kg, iv administered for 10 days followed by ultrasonic sound treatment for 2 to 6 hrs and measured immediately by Hand E staining based analysis; assay type: organism-based; settings: in vivo, time 242-246 hrs
[32] = Toxicity in BALB/c mouse xenografted with human MCF7 cells assessed as liver damage at 1.2 mg/kg, iv administered for 10 days followed by ultrasonic sound treatment for 2 to 6 hrs and measured immediately by Hand E staining based analysis; assay type: organism-based; settings: in vivo, time 242-246 hrs
[33] = Toxicity in BALB/c mouse xenografted with human MCF7 cells assessed as spleen damage at 1.2 mg/kg, iv administered for 10 days followed by ultrasonic sound treatment for 2 to 6 hrs and measured immediately by Hand E staining based analysis; assay type: organism-based; settings: in vivo, time 242-246 hrs
[34] = Toxicity in BALB/c mouse xenografted with human MCF7 cells assessed as lung damage at 1.2 mg/kg, iv administered for 10 days followed by ultrasonic sound treatment for 2 to 6 hrs and measured immediately by Hand E staining based analysis; assay type: organism-based; settings: in vivo, time 242-246 hrs
[35] = Toxicity in BALB/c mouse xenografted with human MCF7 cells assessed as kidney damage at 1.2 mg/kg, iv administered for 10 days followed by ultrasonic sound treatment for 2 to 6 hrs and measured immediately by Hand E staining based analysis; assay type: organism-based; settings: in vivo, time 242-246 hrs
[36] = Toxicity in BALB/c mouse xenografted with human MCF7 cells assessed as kidney damage at 1.2 mg/kg, iv administered for 10 days and measured immediately by Hand E staining based analysis; assay type: organism-based; settings: in vivo, 240 h, time 10 day
[37] = Toxicity in BALB/c mouse xenografted with human MCF7 cells assessed as lung damage at 1.2 mg/kg, iv administered for 10 days and measured immediately by Hand E staining based analysis; assay type: organism-based; settings: in vivo, 240 h, time 10 day
[38] = Toxicity in BALB/c mouse xenografted with human MCF7 cells assessed as spleen damage at 1.2 mg/kg, iv administered for 10 days and measured immediately by Hand E staining based analysis; assay type: organism-based; settings: in vivo, 240 h, time 10 day
[39] = Toxicity in BALB/c mouse xenografted with human MCF7 cells assessed as liver damage at 1.2 mg/kg, iv administered for 10 days and measured immediately by Hand E staining based analysis; assay type: organism-based; settings: in vivo, 240 h, time 10 day
[40] = Toxicity in BALB/c mouse xenografted with human MCF7 cells assessed as heart damage at 1.2 mg/kg, iv administered for 10 days and measured immediately by Hand E staining based analysis; assay type: organism-based; settings: in vivo, 240 h, time 10 day

SMILES: COc1cc(/C=C/C(=O)CC(=O)/C=C/c2ccc(O)c(OC)c2)ccc1O
Activity [19]: Active

SMILES: C=CC1=C(C)c2cc3[nH]c(cc4nc(cc5[nH]c(cc1n2)c(C)c5CCC(=O)O)C(CCC(=O)O)=C4C)c(C)c3C=C
Activity [19]: Active

Second part, led by results:

pEC50 [6]: 7.14
inhibition [17]: Active
SMILES: COc1cc(/C=C/c2ccc(N(c3ccc(Br)cc3)c3ccc(-c4ccc(-c5cccs5)c5nsnc45)cc3)cc2)cc(OC)c1
pIC50 [1]: 5.04
Activity [2]: Active
Activity [3]: inactive
Activity [4]: 4.5%
Activity [5]: 48.1%
inhibition at 10 µM [7]: 48%
Activity [8]: Active
pIC50 [9]: 5.38
pIC50 [10]: 5.70
pIC50 [11]: 5.92
Activity [12]: 56.4%
Activity [13]: 87.5%
Activity [14]: 1.74%
Activity [15]: 4.37%
Activity [16]: inactive
T [18]: 3.4 °C

pEC50 [6]: 6.66
inhibition [17]: Active
SMILES: COc1cc(/C=C/c2ccc(N(c3ccc(/C=C/c4cc(OC)cc(OC)c4)cc3)c3ccc(-c4ccc(-c5ccc(N(c6ccc(/C=C/c7cc(OC)cc(OC)c7)cc6)c6ccc(/C=C/c7cc(OC)cc(OC)c7)cc6)cc5)c5nsnc45)cc3)cc2)cc(OC)c1
pIC50 [1]: 5.44
Activity [2]: Active
Activity [3]: inactive
Activity [4]: 5.8%
Activity [5]: 97.5%
inhibition at 10 µM [7]: 72%
Activity [8]: Active
pIC50 [19]: 5.46
pIC50 [9]: 5.46
pIC50 [10]: 6.08
pIC50 [11]: 6.21
Activity [12]: 35.4%
Activity [13]: 28.7%
Activity [14]: 3.59%
Activity [15]: 2.33%
Activity [16]: inactive
T [18]: 5.9 °C

Drug uptake [20]: Active
pEC50 [6]: 7.16
inhibition [17]: Active
Drug uptake [24]: Active
Drug uptake [25]: Active
SMILES: COc1cc(/C=C/c2ccc(N(c3ccccc3)c3ccc(-c4ccc(-c5ccc(N(c6ccccc6)c6ccc(/C=C/c7cc(OC)cc(OC)c7)cc6)cc5)c5nsnc45)cc3)cc2)cc(OC)c1
pIC50 [1]: 5.62
Activity [2]: Active
Activity [3]: inactive
Activity [4]: 12.4%
Activity [5]: 92.8%
inhibition at 10 µM [7]: 76%
Activity [8]: Active
Activity [21]: Active
Activity [22]: Active
Activity [23]: Active
pIC50 [19]: 5.80
pIC50 [9]: 5.80
pIC50 [10]: 6.26
pIC50 [11]: 6.54
Activity [12]: 29.7%
Activity [13]: 70%
Activity [14]: 0.29%
Activity [15]: 0.045%
Activity [16]: inactive
Activity [26]: Non-Toxic
Activity [27]: Non-Toxic
Activity [28]: 42%
inhibition in vivo at 1.5 mg/kg [29]: 70%
Activity [30]: Active
Activity [31]: Non-Toxic
Activity [32]: Non-Toxic
Activity [33]: Non-Toxic
Activity [34]: Non-Toxic
Activity [35]: Non-Toxic
Activity [36]: Non-Toxic
Activity [37]: Non-Toxic
Activity [38]: Non-Toxic
Activity [39]: Non-Toxic
Activity [40]: Non-Toxic
T [18]: 3.9 °C

Source: ChEMBL document CHEMBL5338750, “Design of Sonosensitizers Integrated with Resveratrol Motif for Synergetic Sonodynamic Therapy and Nuclear Factor Kappa B Transcription Suppression of Breast Cancer” (J Med Chem, 2023)
